Results reported in patent publication US4362743A, “Antibacterial monic acid esters” (Beecham Group Limited, priority 1980, dated 1982).
Values after ≈ are worked out from the molar mass of the structure shown. Like-named read-outs stand apart in the source and are kept apart here.

Assays:
Format in all cases: cell-based
[1] = system: M. suipneumoniae JF 435; assay: Anti-mycoplasmal activity in vitro MIC; details: Mesomycoplasma hyopneumoniae, JF435, 144 h
[2] = system: M. suipneumoniae Str. 11; assay: Anti-mycoplasmal activity in vitro MIC; details: Mesomycoplasma hyopneumoniae
[3] = system: M. suipneumoniae J2206/183b; assay: Anti-mycoplasmal activity in vitro MIC; details: Mesomycoplasma hyopneumoniae, 144 h
[4] = system: M. suipneumoniae PW/C/210; assay: Anti-mycoplasmal activity in vitro MIC; details: Mesomycoplasma hyopneumoniae, 144 h
[5] = system: M. suipneumoniae TAM 6N; assay: Anti-mycoplasmal activity in vitro MIC; details: Mesomycoplasma hyopneumoniae, TAM6N, 144 h
[6] = system: M. suipneumoniae ATCC 25095; assay: Anti-mycoplasmal activity in vitro MIC; details: Mesomycoplasma hyopneumoniae, ATCC25095, 144 h
[7] = system: M. suipneumoniae NCTC 10110; assay: Anti-mycoplasmal activity in vitro MIC; details: Mesomycoplasma hyopneumoniae, NCTC10110, 144 h
[8] = system: M. hyorhinis ATCC 23234; assay: Anti-mycoplasmal activity in vitro MIC; details: Mesomycoplasma hyorhinis, ATCC23234, 144 h
[9] = system: M. hyosynoviae ATCC 25591; assay: Anti-mycoplasmal activity in vitro MIC; details: 144 h
[10] = system: Bacillus subtilis 6633; assay: Human bacteria MIC
Protocol: (§1) The values were determined by serial dilutions in nutrient agar with 5% chocolated horse blood after incubations for 18 hours at 37° C.

[11] = system: Corneybacterium xerosis 9755; assay: Human bacteria MIC
Protocol: as §1

[12] = system: E. Coli NCT 10418; assay: Human bacteria MIC; details: Escherichia coli
Protocol: as §1

[13] = system: E. coli ESS; assay: Human bacteria MIC; details: Escherichia coli
Protocol: as §1

[14] = system: Haemophilus influenzae Q1; assay: Human bacteria MIC
Protocol: as §1

[15] = system: K. aerogenes A; assay: Human bacteria MIC; details: Klebsiella aerogenes
Protocol: as §1

[16] = system: Neisseria catarralis 1502; assay: Human bacteria MIC
Protocol: as §1

[17] = system: P. mirabilis 889; assay: Human bacteria MIC
Protocol: as §1

[18] = system: Pasteurella multocida 1633; assay: Human bacteria MIC
Protocol: as §1

[19] = system: Ps. aeruginosa 10662; assay: Human bacteria MIC
Protocol: as §1

[20] = system: Staph. aureus Oxford; assay: Human bacteria MIC; details: Staphylococcus aureus
Protocol: as §1

[21] = system: Staph. aureus Russell; assay: Human bacteria MIC; details: Staphylococcus aureus
Protocol: as §1

[22] = system: Staph. aureus W2827; assay: Human bacteria MIC; details: Staphylococcus aureus; Staph. aureus W2827; nutrient agar, 5% chocolated horse blood, 18 hours 37° C.; read-out: M.I.C.
Protocol: as §1

[23] = system: Strep Group B 2788; assay: Human bacteria MIC
Protocol: as §1

[24] = system: Strep. Group C 64/848; assay: Human bacteria MIC
Protocol: as §1

[25] = system: Strep. faecalis I; assay: Human bacteria MIC; details: Enterococcus faecalis, nutrient agar, 5% chocolated horse blood, 18 hours 37° C.
Protocol: as §1

[26] = system: Strep. pneumoniae CN33; assay: Human bacteria MIC; details: Streptococcus pneumoniae
Protocol: as §1

[27] = system: Strep. pyogenes R80/421; assay: Human bacteria MIC; details: Streptococcus pyogenes
Protocol: as §1

[28] = 144 h, M. suipneumoniae Str. 11, Friis broth, 0.9% agarose, 6 days 37° C., read-out: M.I.C.
[29] = M. suipneumoniae PW/C/210, Friis broth, 0.9% agarose, 6 days 37° C., read-out: M.I.C.
[30] = Bacillus subtilis 6633, nutrient agar, 5% chocolated horse blood, 18 hours 37° C., read-out: M.I.C.
[31] = Corneybacterium xerosis 9755, nutrient agar, 5% chocolated horse blood, 18 hours 37° C., read-out: M.I.C.
[32] = E. Coli NCT 10418, nutrient agar, 5% chocolated horse blood, 18 hours 37° C., read-out: M.I.C.
[33] = Haemophilus influenzae Q1, nutrient agar, 5% chocolated horse blood, 18 hours 37° C., read-out: M.I.C.
[34] = K. aerogenes A, nutrient agar, 5% chocolated horse blood, 18 hours 37° C., read-out: M.I.C.
[35] = Neisseria catarralis 1502, nutrient agar, 5% chocolated horse blood, 18 hours 37° C., read-out: M.I.C.
[36] = Proteus mirabilis, P. mirabilis 889, nutrient agar, 5% chocolated horse blood, 18 hours 37° C., read-out: M.I.C.
[37] = Pseudomonas aeruginosa, Ps. aeruginosa 10662, nutrient agar, 5% chocolated horse blood, 18 hours 37° C., read-out: M.I.C.
[38] = Staph. aureus Oxford, nutrient agar, 5% chocolated horse blood, 18 hours 37° C., read-out: M.I.C.
[39] = Staph. aureus Russell, nutrient agar, 5% chocolated horse blood, 18 hours 37° C., read-out: M.I.C.
[40] = Strep Group B 2788, nutrient agar, 5% chocolated horse blood, 18 hours 37° C., read-out: M.I.C.
[41] = Strep. Group C 64/848, nutrient agar, 5% chocolated horse blood, 18 hours 37° C., read-out: M.I.C.
[42] = Strep. pneumoniae CN33, nutrient agar, 5% chocolated horse blood, 18 hours 37° C., read-out: M.I.C.
[43] = Strep. pyogenes R80/421, nutrient agar, 5% chocolated horse blood, 18 hours 37° C., read-out: M.I.C.
[44] = M. suipneumoniae JF 435, Friis broth, 0.9% agarose, 6 days 37° C., read-out: M.I.C.
[45] = M. suipneumoniae ATCC 25095, Friis broth, 0.9% agarose, 6 days 37° C., read-out: M.I.C.
[46] = Pasteurella multocida, 1633, 18 h

Compound: C/C(=C\C(=O)OCCCC(=NO)c1cccs1)C[C@@H]1OC[C@H](C[C@@H]2O[C@H]2[C@@H](C)[C@H](C)O)[C@@H](O)[C@H]1O [Example 4, 4-Hydroxyimino-4-(2-thienyl)butyl monate A]
- MIC [1]: 0.5 µg/mL (≈ 0.977 µM)
- MIC [2, 28]: 0.25 µg/mL (≈ 0.489 µM)
- MIC ([3]; J2206/183B): 0.5 µg/mL (≈ 0.977 µM)
- MIC [4, 29]: 0.25 µg/mL (≈ 0.489 µM)
- MIC [5]: 0.5 µg/mL (≈ 0.977 µM)
- MIC [6]: 0.5 µg/mL (≈ 0.977 µM)
- MIC [7]: 0.5 µg/mL (≈ 0.977 µM)
- MIC ([8]; M. hyorhinis ATCC 23234, Friis broth, 0.9% agarose, 6 days 37° C., read-out: M.I.C.): 0.25 µg/mL (≈ 0.489 µM)
- MIC ([9]; M. hyosynoviae ATCC 25591, Friis broth, 0.9% agarose, 6 days 37° C., read-out: M.I.C.): 0.25 µg/mL (≈ 0.489 µM)
- MIC [10, 30]: 1 µg/mL (≈ 1.95 µM)
- MIC [11, 31]: > 100 µg/mL
- MIC [12, 32]: > 100 µg/mL
- MIC ([13]; E. coli ESS, nutrient agar, 5% chocolated horse blood, 18 hours 37° C., read-out: M.I.C.): 2.5 µg/mL (≈ 4.89 µM)
- MIC [14, 33]: 0.5 µg/mL (≈ 0.977 µM)
- MIC [15, 34]: > 100 µg/mL
- MIC [16, 35]: 0.5 µg/mL (≈ 0.977 µM)
- MIC [17, 36]: > 100 µg/mL
- MIC ([18]; Pasteurella multocida 1633, nutrient agar, 5% chocolated horse blood, 18 hours 37° C., read-out: M.I.C.): 5 µg/mL (≈ 9.77 µM)
- MIC [19, 37]: > 100 µg/mL
- MIC [20, 38]: 1 µg/mL (≈ 1.95 µM)
- MIC [21, 39]: 2.5 µg/mL (≈ 4.89 µM)
- MIC [22]: 2.5 µg/mL (≈ 4.89 µM)
- MIC [23, 40]: 2.5 µg/mL (≈ 4.89 µM)
- MIC [24, 41]: 1 µg/mL (≈ 1.95 µM)
- MIC [25]: 100 µg/mL (≈ 195 µM)
- MIC [26, 42]: 1 µg/mL (≈ 1.95 µM)
- MIC [27, 43]: 1 µg/mL (≈ 1.95 µM)

Compound: CON=C(CCCOC(=O)/C=C(\C)C[C@@H]1OC[C@H](C[C@@H]2O[C@H]2[C@@H](C)[C@H](C)O)[C@@H](O)[C@H]1O)c1ccccc1 [Example 5, 4-Methoxyimino-4-phenylbutyl monate A]
- MIC [1, 44]: 0.5 µg/mL (≈ 0.962 µM)
- MIC ([2]; STR.11, 144 h): 0.25 µg/mL (≈ 0.481 µM)
- MIC ([3]; M. suipneumoniae J2206/183b, Friis broth, 0.9% agarose, 6 days 37° C., read-out: M.I.C.): 0.5 µg/mL (≈ 0.962 µM)
- MIC [4]: 0.25 µg/mL (≈ 0.481 µM)
- MIC ([5]; M. suipneumoniae TAM 6N, Friis broth, 0.9% agarose, 6 days 37° C., read-out: M.I.C.): 0.5 µg/mL (≈ 0.962 µM)
- MIC [6, 45]: 0.5 µg/mL (≈ 0.962 µM)
- MIC [7]: 0.25 µg/mL (≈ 0.481 µM)
- MIC [8]: 0.25 µg/mL (≈ 0.481 µM)
- MIC [9]: 0.25 µg/mL (≈ 0.481 µM)
- MIC [10, 30]: 1 µg/mL (≈ 1.92 µM)
- MIC [11, 31]: > 100 µg/mL
- MIC [12, 32]: > 100 µg/mL
- MIC ([13]; 18 h): 5 µg/mL (≈ 9.62 µM)
- MIC [14, 33]: 2.5 µg/mL (≈ 4.81 µM)
- MIC [15, 34]: > 100 µg/mL
- MIC [16, 35]: 1 µg/mL (≈ 1.92 µM)
- MIC [17, 36]: > 100 µg/mL
- MIC [18, 46]: 50 µg/mL (≈ 96.2 µM)
- MIC [19, 37]: > 100 µg/mL
- MIC [20, 38]: 1 µg/mL (≈ 1.92 µM)
- MIC [21, 39]: 2.5 µg/mL (≈ 4.81 µM)
- MIC [22]: 2.5 µg/mL (≈ 4.81 µM)
- MIC [23, 40]: 5 µg/mL (≈ 9.62 µM)
- MIC [24, 41]: 2.5 µg/mL (≈ 4.81 µM)
- MIC [25]: > 100 µg/mL
- MIC [26, 42]: 2.5 µg/mL (≈ 4.81 µM)
- MIC [27, 43]: 2.5 µg/mL (≈ 4.81 µM)

Compound: C/C(=C\C(=O)OCCCCCC=NN(C)C)C[C@@H]1OC[C@H](C[C@@H]2O[C@H]2[C@@H](C)[C@H](C)O)[C@@H](O)[C@H]1O [Example 6, 6-Dimethylhydrazonohexyl monate A]
- MIC [1, 44]: 0.5 µg/mL (≈ 1.03 µM)
- MIC [2, 28]: 0.5 µg/mL (≈ 1.03 µM)
- MIC ([3]; J2206/183B): 1 µg/mL (≈ 2.06 µM)
- MIC [4, 29]: 0.5 µg/mL (≈ 1.03 µM)
- MIC [5]: 1 µg/mL (≈ 2.06 µM)
- MIC [6, 45]: 0.5 µg/mL (≈ 1.03 µM)
- MIC ([7]; M. suipneumoniae NCTC 10110, Friis broth, 0.9% agarose, 6 days 37° C., read-out: M.I.C.): 0.5 µg/mL (≈ 1.03 µM)
- MIC [8]: 0.25 µg/mL (≈ 0.516 µM)
- MIC [9]: 0.1 µg/mL (≈ 0.206 µM)
- MIC ([10]; Bacillus subtilis, 6633, 18 h): 5 µg/mL (≈ 10.3 µM)
- MIC ([11]; 18 h): > 100 µg/mL
- MIC ([12]; 18 h): > 100 µg/mL
- MIC ([13]; 18 h): 5 µg/mL (≈ 10.3 µM)
- MIC ([14]; Haemophilus influenzae, Q1, 18 h): 0.5 µg/mL (≈ 1.03 µM)
- MIC ([15]; 18 h): > 100 µg/mL
- MIC ([16]; Neisseria, 1502, 18 h): 0.05 µg/mL (≈ 0.103 µM)
- MIC ([17]; Proteus mirabilis, 889, 18 h): > 100 µg/mL
- MIC [18, 46]: 1 µg/mL (≈ 2.06 µM)
- MIC ([19]; Pseudomonas aeruginosa, 10662, 18 h): > 100 µg/mL
- MIC ([20]; 18 h): 0.1 µg/mL (≈ 0.206 µM)
- MIC ([21]; 18 h): 0.25 µg/mL (≈ 0.516 µM)
- MIC [22]: 0.25 µg/mL (≈ 0.516 µM)
- MIC ([23]; 18 h): 1 µg/mL (≈ 2.06 µM)
- MIC ([24]; 18 h): 1 µg/mL (≈ 2.06 µM)
- MIC [25]: > 100 µg/mL
- MIC ([26]; CN33, 18 h): 1 µg/mL (≈ 2.06 µM)
- MIC ([27]; R80/421, 18 h): 1 µg/mL (≈ 2.06 µM)
